“And” between values parts separate entries of the source, which are not always exact repeats. Equal values may be shown once.
test system: HCC1599; assay: normalised viability (% of control), CellTiter-Blue; higher = more viable cells (about 100 = DMSO control); conditions: 1000 nM; incubation time: 72 h
Outline: (§1)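 Compound dissolved in 5 µl medium was pre-loaded into 384-well plates, and breast cancer cell lines in 20 µl suspension were seeded on top and incubated 72 h. After adding 2.5 µl CellTiter-Blue reagent for 2 h at 37 °C, fluorescence was read at 560/590 nm. Plates were normalised to vehicle (100) and a positive kill control (0), with Z'-factor quality control. Each value is normalised viability at a single listed concentration from the series.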

| SMILES | normalised viability |
| --- | --- |
| Nc1ccccc1NC(=O)c1ccc(CNc2nccc(-c3cccnc3)n2)cc1 [Mocetinostat] | 54.6% |
| COc1nc(N)nc2c1ncn2[C@@H]1O[C@H](CO)[C@@H](O)[C@@H]1O [Nelarabine] | 108% and 123% |
| Cc1ccc(Nc2nccc(N(C)c3ccc4c(C)n(C)nc4c3)n2)cc1S(N)(=O)=O [Pazopanib] | 115% |
| O=C(CCBr)N1CCN(C(=O)CCBr)CC1 [Pipobroman] | 92.8% |
| C[C@]12C=CC(=O)C=C1CC[C@@H]1[C@@H]2[C@@H](O)C[C@@]2(C)[C@H]1CC[C@]2(O)C(=O)CO [Prednisolone] | 92.2% |
| CNC(=O)c1cc(Oc2ccc(NC(=O)Nc3ccc(Cl)c(C(F)(F)F)c3)cc2)ccn1 [Sorafenib] | 100% and 112% |
| CCN(CC)CCNC(=O)c1c(C)[nH]c(/C=C2\C(=O)Nc3ccc(F)cc32)c1C [Sunitinib] | 101% and 90.8% |
| CC[C@@]1(O)C(=O)OCc2c1cc1n(c2=O)Cc2cc3c(CN(C)C)c(O)ccc3nc2-1 [Topotecan] | 64% |

same assay, conditions: 2500 nM; incubation time: 72 h

| SMILES | normalised viability |
| --- | --- |
| c1cc(CN2CCCNCCNCCCNCC2)ccc1CN1CCCNCCNCCCNCC1 [Plerixafor] | 115% |

same assay, conditions: 10000 nM; incubation time: 72 h

| SMILES | normalised viability |
| --- | --- |
| Nc1ccccc1NC(=O)c1ccc(CNc2nccc(-c3cccnc3)n2)cc1 [Mocetinostat] | 23.5% |
| COc1nc(N)nc2c1ncn2[C@@H]1O[C@H](CO)[C@@H](O)[C@@H]1O [Nelarabine] | 136% and 114% |
| Cc1ccc(Nc2nccc(N(C)c3ccc4c(C)n(C)nc4c3)n2)cc1S(N)(=O)=O [Pazopanib] | 104% |
| O=C(CCBr)N1CCN(C(=O)CCBr)CC1 [Pipobroman] | 83.2% |
| C[C@]12C=CC(=O)C=C1CC[C@@H]1[C@@H]2[C@@H](O)C[C@@]2(C)[C@H]1CC[C@]2(O)C(=O)CO [Prednisolone] | 84.9% |

test system: HCC1937; assay: as above; conditions: 1 nM; incubation time: 72 h
Outline: as §1

| SMILES | normalised viability |
| --- | --- |
| O=C1c2c(O)ccc(O)c2C(=O)c2c(NCCNCCO)ccc(NCCNCCO)c21 [Mitoxantrone] | 65.7% |
| CCN(CC)CCNC(=O)c1c(C)[nH]c(/C=C2\C(=O)Nc3ccc(F)cc32)c1C [Sunitinib] | 93.7% and 84.2% |
| CC[C@@]1(O)C(=O)OCc2c1cc1n(c2=O)Cc2cc3c(CN(C)C)c(O)ccc3nc2-1 [Topotecan] | 96.9% |

same assay, conditions: 2.5 nM; incubation time: 72 h

| SMILES | normalised viability |
| --- | --- |
| c1cc(CN2CCCNCCNCCCNCC2)ccc1CN1CCCNCCNCCCNCC1 [Plerixafor] | 91.3% |

same assay, conditions: 10 nM; incubation time: 72 h

| SMILES | normalised viability |
| --- | --- |
| Nc1ccccc1NC(=O)c1ccc(CNc2nccc(-c3cccnc3)n2)cc1 [Mocetinostat] | 84.4% |
| Cc1ccc(Nc2nccc(N(C)c3ccc4c(C)n(C)nc4c3)n2)cc1S(N)(=O)=O [Pazopanib] | 86.7% |
| O=C(CCBr)N1CCN(C(=O)CCBr)CC1 [Pipobroman] | 89.2% |
| C[C@]12C=CC(=O)C=C1CC[C@@H]1[C@@H]2[C@@H](O)C[C@@]2(C)[C@H]1CC[C@]2(O)C(=O)CO [Prednisolone] | 91.7% |

same assay, conditions: 100 nM; incubation time: 72 h

| SMILES | normalised viability |
| --- | --- |
| O=C1c2c(O)ccc(O)c2C(=O)c2c(NCCNCCO)ccc(NCCNCCO)c21 [Mitoxantrone] | 25% |
| CNC(=O)c1cc(Oc2ccc(NC(=O)Nc3ccc(Cl)c(C(F)(F)F)c3)cc2)ccn1 [Sorafenib] | 106% and 100% |
| CCN(CC)CCNC(=O)c1c(C)[nH]c(/C=C2\C(=O)Nc3ccc(F)cc32)c1C [Sunitinib] | 82.3% and 102% |
| CC[C@@]1(O)C(=O)OCc2c1cc1n(c2=O)Cc2cc3c(CN(C)C)c(O)ccc3nc2-1 [Topotecan] | 40.6% |

same assay, conditions: 250 nM; incubation time: 72 h

| SMILES | normalised viability |
| --- | --- |
| c1cc(CN2CCCNCCNCCCNCC2)ccc1CN1CCCNCCNCCCNCC1 [Plerixafor] | 103% |

same assay, conditions: 1000 nM; incubation time: 72 h

| SMILES | normalised viability |
| --- | --- |
| O=C1c2c(O)ccc(O)c2C(=O)c2c(NCCNCCO)ccc(NCCNCCO)c21 [Mitoxantrone] | 23.7% |
| Nc1ccccc1NC(=O)c1ccc(CNc2nccc(-c3cccnc3)n2)cc1 [Mocetinostat] | 70.4% |
| COc1nc(N)nc2c1ncn2[C@@H]1O[C@H](CO)[C@@H](O)[C@@H]1O [Nelarabine] | 109% and 93.9% |
| Cc1ccc(Nc2nccc(N(C)c3ccc4c(C)n(C)nc4c3)n2)cc1S(N)(=O)=O [Pazopanib] | 92% |
| O=C(CCBr)N1CCN(C(=O)CCBr)CC1 [Pipobroman] | 77.9% |
| C[C@]12C=CC(=O)C=C1CC[C@@H]1[C@@H]2[C@@H](O)C[C@@]2(C)[C@H]1CC[C@]2(O)C(=O)CO [Prednisolone] | 108% |
| CNC(=O)c1cc(Oc2ccc(NC(=O)Nc3ccc(Cl)c(C(F)(F)F)c3)cc2)ccn1 [Sorafenib] | 82.3% and 82.8% |
| CCN(CC)CCNC(=O)c1c(C)[nH]c(/C=C2\C(=O)Nc3ccc(F)cc32)c1C [Sunitinib] | 84.5% and 93.2% |
| CC[C@@]1(O)C(=O)OCc2c1cc1n(c2=O)Cc2cc3c(CN(C)C)c(O)ccc3nc2-1 [Topotecan] | 26.2% |

same assay, conditions: 2500 nM; incubation time: 72 h

| SMILES | normalised viability |
| --- | --- |
| c1cc(CN2CCCNCCNCCCNCC2)ccc1CN1CCCNCCNCCCNCC1 [Plerixafor] | 111% |

same assay, conditions: 10000 nM; incubation time: 72 h

| SMILES | normalised viability |
| --- | --- |
| Nc1ccccc1NC(=O)c1ccc(CNc2nccc(-c3cccnc3)n2)cc1 [Mocetinostat] | 21.4% |
| COc1nc(N)nc2c1ncn2[C@@H]1O[C@H](CO)[C@@H](O)[C@@H]1O [Nelarabine] | 92.3% and 80.8% |
| Cc1ccc(Nc2nccc(N(C)c3ccc4c(C)n(C)nc4c3)n2)cc1S(N)(=O)=O [Pazopanib] | 94.3% |
| O=C(CCBr)N1CCN(C(=O)CCBr)CC1 [Pipobroman] | 85.3% |
| C[C@]12C=CC(=O)C=C1CC[C@@H]1[C@@H]2[C@@H](O)C[C@@]2(C)[C@H]1CC[C@]2(O)C(=O)CO [Prednisolone] | 99.1% |

test system: HDQ-P1; assay: as above; conditions: 0.3 nM; incubation time: 72 h
Outline: as §1

| SMILES | normalised viability |
| --- | --- |
| O=C1c2c(O)ccc(O)c2C(=O)c2c(NCCNCCO)ccc(NCCNCCO)c21 [Mitoxantrone] | 74.8% |
| CNC(=O)c1cc(Oc2ccc(NC(=O)Nc3ccc(Cl)c(C(F)(F)F)c3)cc2)ccn1 [Sorafenib] | 107% and 97.1% |
| CCN(CC)CCNC(=O)c1c(C)[nH]c(/C=C2\C(=O)Nc3ccc(F)cc32)c1C [Sunitinib] | 101% and 95.9% |
| CC[C@@]1(O)C(=O)OCc2c1cc1n(c2=O)Cc2cc3c(CN(C)C)c(O)ccc3nc2-1 [Topotecan] | 112% |

same assay, conditions: 0.75 nM; incubation time: 72 h

| SMILES | normalised viability |
| --- | --- |
| c1cc(CN2CCCNCCNCCCNCC2)ccc1CN1CCCNCCNCCCNCC1 [Plerixafor] | 106% |

same assay, conditions: 3 nM; incubation time: 72 h

| SMILES | normalised viability |
| --- | --- |
| O=C1c2c(O)ccc(O)c2C(=O)c2c(NCCNCCO)ccc(NCCNCCO)c21 [Mitoxantrone] | 86.7% |
| Nc1ccccc1NC(=O)c1ccc(CNc2nccc(-c3cccnc3)n2)cc1 [Mocetinostat] | 108% |
| COc1nc(N)nc2c1ncn2[C@@H]1O[C@H](CO)[C@@H](O)[C@@H]1O [Nelarabine] | 77.3% and 89.3% |
| Cc1ccc(Nc2nccc(N(C)c3ccc4c(C)n(C)nc4c3)n2)cc1S(N)(=O)=O [Pazopanib] | 107% |
| O=C(CCBr)N1CCN(C(=O)CCBr)CC1 [Pipobroman] | 104% |
| C[C@]12C=CC(=O)C=C1CC[C@@H]1[C@@H]2[C@@H](O)C[C@@]2(C)[C@H]1CC[C@]2(O)C(=O)CO [Prednisolone] | 112% |
| CNC(=O)c1cc(Oc2ccc(NC(=O)Nc3ccc(Cl)c(C(F)(F)F)c3)cc2)ccn1 [Sorafenib] | 98.5% and 88.8% |
| CCN(CC)CCNC(=O)c1c(C)[nH]c(/C=C2\C(=O)Nc3ccc(F)cc32)c1C [Sunitinib] | 85.3% and 98.3% |
| CC[C@@]1(O)C(=O)OCc2c1cc1n(c2=O)Cc2cc3c(CN(C)C)c(O)ccc3nc2-1 [Topotecan] | 105% |

same assay, conditions: 7.5 nM; incubation time: 72 h

| SMILES | normalised viability |
| --- | --- |
| c1cc(CN2CCCNCCNCCCNCC2)ccc1CN1CCCNCCNCCCNCC1 [Plerixafor] | 123% |

same assay, conditions: 10 nM; incubation time: 72 h

| SMILES | normalised viability |
| --- | --- |
| O=C1c2c(O)ccc(O)c2C(=O)c2c(NCCNCCO)ccc(NCCNCCO)c21 [Mitoxantrone] | 79.2% |
| CC[C@@]1(O)C(=O)OCc2c1cc1n(c2=O)Cc2cc3c(CN(C)C)c(O)ccc3nc2-1 [Topotecan] | 105% |

same assay, conditions: 25 nM; incubation time: 72 h

| SMILES | normalised viability |
| --- | --- |
| c1cc(CN2CCCNCCNCCCNCC2)ccc1CN1CCCNCCNCCCNCC1 [Plerixafor] | 111% |

same assay, conditions: 30 nM; incubation time: 72 h

| SMILES | normalised viability |
| --- | --- |
| Nc1ccccc1NC(=O)c1ccc(CNc2nccc(-c3cccnc3)n2)cc1 [Mocetinostat] | 119% |
| COc1nc(N)nc2c1ncn2[C@@H]1O[C@H](CO)[C@@H](O)[C@@H]1O [Nelarabine] | 91.1% and 89.2% |
| Cc1ccc(Nc2nccc(N(C)c3ccc4c(C)n(C)nc4c3)n2)cc1S(N)(=O)=O [Pazopanib] | 103% |
| O=C(CCBr)N1CCN(C(=O)CCBr)CC1 [Pipobroman] | 83.8% |
| C[C@]12C=CC(=O)C=C1CC[C@@H]1[C@@H]2[C@@H](O)C[C@@]2(C)[C@H]1CC[C@]2(O)C(=O)CO [Prednisolone] | 124% |

same assay, conditions: 100 nM; incubation time: 72 h

| SMILES | normalised viability |
| --- | --- |
| Nc1ccccc1NC(=O)c1ccc(CNc2nccc(-c3cccnc3)n2)cc1 [Mocetinostat] | 74% |
| Cc1ccc(Nc2nccc(N(C)c3ccc4c(C)n(C)nc4c3)n2)cc1S(N)(=O)=O [Pazopanib] | 99.2% |
| O=C(CCBr)N1CCN(C(=O)CCBr)CC1 [Pipobroman] | 107% |
| C[C@]12C=CC(=O)C=C1CC[C@@H]1[C@@H]2[C@@H](O)C[C@@]2(C)[C@H]1CC[C@]2(O)C(=O)CO [Prednisolone] | 108% |

test system: Hs578T; assay: as above; conditions: 1 nM; incubation time: 72 h
Outline: as §1

| SMILES | normalised viability |
| --- | --- |
| O=C1c2c(O)ccc(O)c2C(=O)c2c(NCCNCCO)ccc(NCCNCCO)c21 [Mitoxantrone] | 91.6% |
| CNC(=O)c1cc(Oc2ccc(NC(=O)Nc3ccc(Cl)c(C(F)(F)F)c3)cc2)ccn1 [Sorafenib] | 126% and 102% |
| CCN(CC)CCNC(=O)c1c(C)[nH]c(/C=C2\C(=O)Nc3ccc(F)cc32)c1C [Sunitinib] | 106% and 100% |
| CC[C@@]1(O)C(=O)OCc2c1cc1n(c2=O)Cc2cc3c(CN(C)C)c(O)ccc3nc2-1 [Topotecan] | 132% |

same assay, conditions: 2.5 nM; incubation time: 72 h

| SMILES | normalised viability |
| --- | --- |
| c1cc(CN2CCCNCCNCCCNCC2)ccc1CN1CCCNCCNCCCNCC1 [Plerixafor] | 117% |

same assay, conditions: 10 nM; incubation time: 72 h

| SMILES | normalised viability |
| --- | --- |
| Nc1ccccc1NC(=O)c1ccc(CNc2nccc(-c3cccnc3)n2)cc1 [Mocetinostat] | 96.8% |
| COc1nc(N)nc2c1ncn2[C@@H]1O[C@H](CO)[C@@H](O)[C@@H]1O [Nelarabine] | 103% and 92.6% |
| Cc1ccc(Nc2nccc(N(C)c3ccc4c(C)n(C)nc4c3)n2)cc1S(N)(=O)=O [Pazopanib] | 117% |
| O=C(CCBr)N1CCN(C(=O)CCBr)CC1 [Pipobroman] | 107% |

— the supplement of paper PMC4862054
